For this test, the target named is T1, LRRK2 G2019S mutant kinase (Homo sapiens, UniProt Q5S007, G2019S).
T1 construct: GST; purchased Invitrogen PV4882
T1 sequence (Q5S007 whole entry G2019S): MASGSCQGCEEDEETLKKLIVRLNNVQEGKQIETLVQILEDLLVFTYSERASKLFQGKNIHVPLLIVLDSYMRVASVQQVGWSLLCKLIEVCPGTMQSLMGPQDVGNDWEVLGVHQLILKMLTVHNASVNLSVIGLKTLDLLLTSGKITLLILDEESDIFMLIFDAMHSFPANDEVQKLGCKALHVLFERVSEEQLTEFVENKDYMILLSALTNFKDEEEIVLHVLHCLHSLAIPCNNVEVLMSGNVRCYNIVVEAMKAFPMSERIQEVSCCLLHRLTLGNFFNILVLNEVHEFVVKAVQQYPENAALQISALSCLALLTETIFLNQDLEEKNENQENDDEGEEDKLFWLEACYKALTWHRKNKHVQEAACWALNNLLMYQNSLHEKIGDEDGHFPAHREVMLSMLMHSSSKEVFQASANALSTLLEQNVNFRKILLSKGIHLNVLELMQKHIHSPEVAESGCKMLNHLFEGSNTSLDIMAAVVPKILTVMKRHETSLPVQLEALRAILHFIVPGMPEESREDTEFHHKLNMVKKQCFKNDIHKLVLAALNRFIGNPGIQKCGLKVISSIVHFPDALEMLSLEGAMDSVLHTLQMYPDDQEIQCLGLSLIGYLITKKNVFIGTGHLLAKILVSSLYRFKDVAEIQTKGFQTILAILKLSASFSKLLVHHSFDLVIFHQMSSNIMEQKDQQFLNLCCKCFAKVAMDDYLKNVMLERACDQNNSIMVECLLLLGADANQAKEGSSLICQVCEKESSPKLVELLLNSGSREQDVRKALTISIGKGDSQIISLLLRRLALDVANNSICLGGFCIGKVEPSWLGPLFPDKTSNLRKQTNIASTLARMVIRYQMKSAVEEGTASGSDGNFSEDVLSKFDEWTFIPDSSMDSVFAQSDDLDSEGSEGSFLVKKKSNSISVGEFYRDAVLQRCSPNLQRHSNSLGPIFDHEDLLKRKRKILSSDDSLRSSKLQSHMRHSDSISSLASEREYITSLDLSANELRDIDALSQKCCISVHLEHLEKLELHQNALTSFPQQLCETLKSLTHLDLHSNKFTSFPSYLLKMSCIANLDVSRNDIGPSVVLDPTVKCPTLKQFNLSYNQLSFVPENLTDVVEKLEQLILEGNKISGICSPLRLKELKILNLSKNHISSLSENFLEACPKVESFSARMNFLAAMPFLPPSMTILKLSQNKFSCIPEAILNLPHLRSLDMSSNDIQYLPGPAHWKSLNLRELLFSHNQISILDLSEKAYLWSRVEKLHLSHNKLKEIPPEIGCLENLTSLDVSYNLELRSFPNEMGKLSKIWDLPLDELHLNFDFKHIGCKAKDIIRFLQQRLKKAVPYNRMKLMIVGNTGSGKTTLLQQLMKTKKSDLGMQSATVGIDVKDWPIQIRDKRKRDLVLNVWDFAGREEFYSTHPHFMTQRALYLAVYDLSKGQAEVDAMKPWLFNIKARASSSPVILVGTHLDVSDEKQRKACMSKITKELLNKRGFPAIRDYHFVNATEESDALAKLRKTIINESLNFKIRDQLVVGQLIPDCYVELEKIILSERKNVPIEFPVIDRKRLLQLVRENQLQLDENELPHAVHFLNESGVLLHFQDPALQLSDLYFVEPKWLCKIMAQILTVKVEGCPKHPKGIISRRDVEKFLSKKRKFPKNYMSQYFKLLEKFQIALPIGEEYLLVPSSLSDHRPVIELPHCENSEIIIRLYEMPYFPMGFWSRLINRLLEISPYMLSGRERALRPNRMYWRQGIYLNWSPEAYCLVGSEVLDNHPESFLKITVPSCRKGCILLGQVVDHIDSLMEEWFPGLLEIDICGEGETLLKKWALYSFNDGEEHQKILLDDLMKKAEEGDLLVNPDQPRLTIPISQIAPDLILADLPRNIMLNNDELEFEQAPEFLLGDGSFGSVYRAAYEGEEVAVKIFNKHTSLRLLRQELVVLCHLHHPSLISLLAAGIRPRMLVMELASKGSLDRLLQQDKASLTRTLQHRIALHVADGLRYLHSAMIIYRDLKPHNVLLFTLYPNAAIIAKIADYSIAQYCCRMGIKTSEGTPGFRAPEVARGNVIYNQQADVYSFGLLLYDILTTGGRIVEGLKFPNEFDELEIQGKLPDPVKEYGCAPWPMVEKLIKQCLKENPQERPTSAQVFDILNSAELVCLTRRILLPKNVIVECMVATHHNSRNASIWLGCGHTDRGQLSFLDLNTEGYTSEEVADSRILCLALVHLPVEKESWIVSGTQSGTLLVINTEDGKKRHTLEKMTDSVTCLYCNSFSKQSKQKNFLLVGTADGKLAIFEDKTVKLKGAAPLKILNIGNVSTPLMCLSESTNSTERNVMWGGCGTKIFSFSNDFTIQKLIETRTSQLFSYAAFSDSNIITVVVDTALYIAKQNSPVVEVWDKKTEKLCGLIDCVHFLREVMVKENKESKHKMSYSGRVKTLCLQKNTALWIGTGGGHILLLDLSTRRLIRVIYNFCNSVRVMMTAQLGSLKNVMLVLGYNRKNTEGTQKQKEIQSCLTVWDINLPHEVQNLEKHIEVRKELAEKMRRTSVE
The experiment in a line: LRRK2 G2019S LanthaScreen TR-FRET kinase assay. It is filed as biochemical. The settings on record: LRRK2 G2019S GST-tagged protein, 100 μM ATP, LRRKtide substrate; read-out: IC50 (potency). On the procedure: Activity of compounds against LRRK2 G2019S mutant kinase function was tested in a LANTHAScreen® assay as follows: Compounds were diluted in 100% DMSO to the desired test concentrations in white, low-volume 384-well plates (PerkinElmer ProxiPlate® PN: 6008280). TR-FRET kinase reactions (10 μL) were performed with 75 nM Fluorescein-ERM (LRRKtide, Invitrogen, PN:PV4901) substrate in a final assay buffer containing 100 μM ATP and 2 mM DTT diluted in commercially available Kinase Buffer S (Invitrogen PN: PV5213). The final solvent concentration in the assay was 1% DMSO. Reactions were initiated with the addition of 10 ng/well of LRRK2 02019S, GST-tagged protein (Invitrogen PN: PV4882). After incubation of the foil sealed reaction plates at room temperature with low speed mixing for 1 hour, the kinase reaction was stopped and the amount of substrate phosphorylation was detected by addition of 10 μL of 10 mM EDTA and 2 nM Tb-anti-pERM (pLRRKtide antibody, Invitrogen, PN: PV4898) antibody in TR-FRET dilution buffer (Invitrogen PN: PV3574). After a 30 minute incubation at room temperature with low speed mixing, foil seals were removed and measurements were obtained on a PerkinElmer EnVision with excitation 340 nm, emission 520 nm (channel 1): 495 nm (channel 2) settings. Generation of raw data and workup of data to derive the IC50 (potency) and maximal inhibition at concentrations tested were performed using Merck's Assay Data Analyzer (ADA) software.
A general note: TR-FRET usually uses a lanthanide donor and a delayed reading to cut background.
By IC50 is commonly meant the concentration needed to halve the response being measured. In the case of `CC1(C)CC(=O)c2c(OC3CCCC3)sc(-c3cc[nH]n3)c2C1` [Example 52, 3-(Cyclopentyloxy)-6,6-dimethyl-1-(1H-pyrazol-3-yl)-6,7-dihydro-2-benzothiophen-4(5H)-one], the IC50 turned out to be 300 nM.

Take `CC1(C)CC(=O)c2c(OC3CCC3)sc(-c3cc[nH]n3)c2C1` [Example 53, 3-(Cyclobutylexy)-6,6-dimethyl-1-(1H-pyrazol-3-yl)-6,7-dihydro-2-benzothiophen-4(5H)-one]: the IC50 came out at 430 nM.

On to `CC(C)Oc1sc(-c2cc[nH]n2)c2c1C(=O)CC(C)(C)C2` [Example 54, 6,6-Dimethyl-3-(propan-2-yloxy)-1-(1H-pyrazol-3-yl)-6,7-dihydro-2-benzothiophen-4(5H)-one], for which the IC50 worked out at 790 nM.

In the case of `CC1(C)CC(=O)c2c(Oc3ccccc3)sc(-c3cc[nH]n3)c2C1` [Example 55, 6,6-Dimethyl-3-phenoxy-1-(1H-pyrazol-3-yl)-6,7-dihydro-2-benzothiophen-4(5H)-one], the IC50 was found to be 4200 nM.

As to `CCCc1sc(-c2cc[nH]n2)c2c1C(=O)CC(C)(C)C2` [Example 56, 6,6-Dimethyl-3-propyl-1-(1H-pyrazol-3-yl)-6,7-dihydro-2-benzothiophen-4(5H)-one], the concentration for half-maximal inhibition (IC50) worked out at 2200 nM.

For the compound `CC(C)NC(=O)n1ccc(-c2sc(SC3CCCC3)c3c2CC(C)(C)CC3=O)n1` [Example 57], the IC50 was 1400 nM.

Take `COc1ccc(NC(=O)n2ccc(-c3sc(SC4CCCC4)c4c3CC(C)(C)CC4=O)n2)cc1` [Example 58, 3-[3-(Cyclopentylsulfanyl)-6,6-dimethyl-4-oxo-4,5,6,7-tetrahydro-2-benzothiophen-1-yl]-N-(4-methoxyphenyl)-1H-pyrazole-1-carboxamide]: the IC50 was 110 nM.

Turning to `CC1(C)CC(=O)c2c(SC3CCCC3)sc(-c3ccn(C(=O)Nc4ccc(C(F)(F)F)cc4)n3)c2C1` [Example 59, 3-[3-(Cyclopentylsulfanyl)-6,6-dimethyl-4-oxo-4,5,6,7-tetrahydro-2-benzothiophen-1-yl]-N-[4-(trifluoromethyl)phenyl]-1H-pyrazole-1-carboxamide], the 50% inhibitory concentration (IC50) was 93 nM.

Regarding `CC1(C)CC(=O)c2c(SC3CCCC3)sc(-c3ccn(C(=O)NCc4ccccc4)n3)c2C1` [Example 60, N-benzyl-3-[3-(Cyclopentylsulfanyl)-6,6-dimethyl-4-oxo-4,5,6,7-tetrahydro-2-benzothiophen-1-yl]-1H-pyrazole-1-carboxamide], the IC50 is 520 nM.

As to `CSc1cccc(NC(=O)n2ccc(-c3sc(SC4CCCC4)c4c3CC(C)(C)CC4=O)n2)c1` [Example 61, 3-[3-(Cyclopentylsulfanyl)-6,6-dimethyl-4-oxo-4,5,6,7-tetrahydro-2-benzothiophen-1-yl]-N-[3-(methylsulfanyl)phenyl]-1H-pyrazole-1-carboxamide], the half-maximal inhibitory concentration (IC50) came out at 110 nM.

`CC1(C)CC(=O)c2c(SC3CCCC3)sc(-c3ccn(C(=O)Nc4ccc(Cl)cc4)n3)c2C1` [Example 62, N-(4-Chlorophenyl)-3-[3-(cyclopentylsulfanyl)-6,6-dimethyl-4-oxo-4,5,6,7-tetrahydro-2-benzothiophen-1-yl]-1H-pyrazole-1-carboxamide]: the half-inhibitory concentration (IC50) was found to be 86 nM.

On to `CC1(C)CC(=O)c2c(SC3CCCC3)sc(-c3ccn(C(=O)Nc4ccc5ccccc5c4)n3)c2C1` [Example 63, 3-[3-(Cyclopentylsulfanyl)-6,6-dimethyl-4-oxo-4,5,6,7-tetrahydro-2-benzothiophen-1-yl]-N-(naphthalen-2-yl)-1H-pyrazole-1-carboxamide], for which the half-maximal inhibitory concentration (IC50) came out at 110 nM.

`CC1(C)CC(=O)c2c(SC3CCCC3)sc(-c3ccn(C(=O)Nc4ccc(C#N)cc4)n3)c2C1` [Example 64, N-(4-Cyanophenyl)-3-[3-(cyclopentylsulfanyl)-6,6-dimethyl-4-oxo-4,5,6,7-tetrahydro-2-benzothiophen-1-yl]-1H-pyrazole-1-carboxamide]: the half-inhibitory concentration (IC50) stood at 85 nM.

Take `CC1(C)CC(=O)c2c(SC3CCCC3)sc(-c3ccn(C(=O)NC4CCN(C(=O)C(F)(F)F)CC4)n3)c2C1` [Example 65, 3-[3-(Cyclopentylsulfanyl)-6,6-dimethyl-4-oxo-4,5,6,7-tetrahydro-2-benzothiophen-1-yl]-N-[1-(trifluoroacetyl)piperidin-4-yl]-1H-pyrazole-1-carboxamide]: the IC50 came out at 330 nM.

As for `COc1ccccc1NC(=O)n1ccc(-c2sc(SC3CCCC3)c3c2CC(C)(C)CC3=O)n1` [Example 66, 3-[3-(Cyclopentylsulfanyl)-6,6-dimethyl-4-oxo-4,5,6,7-tetrahydro-2-benzothiophen-1-yl]-N-(2-methoxyphenyl)-1H-pyrazole-1-carboxamide], the IC50 is 110 nM.

As for `CC1(C)CC(=O)c2c(SC3CCCC3)sc(-c3ccn(C(=O)Nc4cccc(Cl)c4)n3)c2C1` [Example 67, N-(3-Chlorophenyl)-3-[3-(cyclopentylsulfanyl)-6,6-dimethyl-4-oxo-4,5,6,7-tetrahydro-2-benzothiophen-1-yl]-1H-pyrazole-1-carboxamide], the 50% inhibitory concentration (IC50) stood at 330 nM.

Consider `CC1(C)CC(=O)c2c(SC3CCCC3)sc(-c3ccn(C(=O)Nc4cccc(C#N)c4)n3)c2C1` [Example 68, N-(3-Cyanophenyl)-3-[3-(cyclopentylsulfanyl)-6,6-dimethyl-4-oxo-4,5,6,7-tetrahydro-2-benzothiophen-1-yl]-1H-pyrazole-1-carboxamide], for which the IC50 worked out at 130 nM.

`CC1(C)CC(=O)c2c(SC3CCCC3)sc(-c3ccn(C(=O)NCCc4ccccc4)n3)c2C1` [Example 69, 3-[3-(Cyclopentylsulfanyl)-6,6-dimethyl-4-oxo-4,5,6,7-tetrahydro-2-benzothiophen-1-yl]-N-(2-phenylethyl)-1H-pyrazole-1-carboxamide]: the IC50 worked out at 4200 nM.

Take `CC1(C)CC(=O)c2c(SC3CCCC3)sc(-c3ccn(C(=O)NC(C)(C)C)n3)c2C1` [Example 70, N-tert-Butyl-3-[3-(cyclopentylsulfanyl)-6,6-dimethyl-4-oxo-4,5,6,7-tetrahydro-2-benzothiophen-1-yl]-1H-pyrazole-1-carboxamide]: the IC50 was found to be 1300 nM.

Take `CCC(C)NC(=O)n1ccc(-c2sc(SC3CCCC3)c3c2CC(C)(C)CC3=O)n1` (stereo not shown) [Example 71, N-(Butan-2-yl)-3-[3-(cyclopentylsulfanyl)-6,6-dimethyl-4-oxo-4,5,6,7-tetrahydro-2-benzothiophen-1-yl]-1H-pyrazole-1-carboxamide]: the IC50 amounted to 1700 nM.

Turning to `CNC(=O)n1ccc(-c2sc(SC3CCCC3)c3c2CC(C)(C)CC3=O)n1` [Example 72, 3-[3-(Cyclopentylsulfanyl)-6,6-dimethyl-4-oxo-4,5,6,7-tetrahydro-2-benzothiophen-1-yl]-N-methyl-1H-pyrazole-1-carboxamide], the IC50 turned out to be 1700 nM.

As to `CC1(C)CC(=O)c2c(NC3CCCC3)sc(-c3ccn(C(=O)Nc4ccc(Cl)cc4)n3)c2C1` [Example 73, N-(4-Chlorophenyl)-3-[3-(cyclopentylamino)-6,6-dimethyl-4-oxo-4,5,6,7-tetrahydro-2-benzothiophen-1-yl]-1H-pyrazole-1-carboxamide], the IC50 stood at 280 nM.

As to `CC1(C)CC(=O)c2c(NC3CCCC3)sc(-c3ccn(C(=O)Nc4ccc(C#N)cc4)n3)c2C1` [Example 74, N-(4-Cyanophenyl)-3-[3-(cyclopentylamino)-6,6-dimethyl-4-oxo-4,5,6,7-tetrahydro-2-benzothiophen-1-yl]-1H-pyrazole-1-carboxamide], the IC50 came out at 190 nM.

With `CC1(C)CC(=O)c2c(NC3CCCC3)sc(-c3ccn(C(=O)Nc4ccncc4)n3)c2C1` [Example 75, 3-[3-(Cyclopentylamino)-6,6-dimethyl-4-oxo-4,5,6,7-tetrahydro-2-benzothiophen-1-yl]-N-(pyridin-4-yl)-1H-pyrazole-1-carboxamide], the IC50 was found to be 720 nM.

Regarding `CCCC(=O)n1ccc(-c2sc(SC3CCCC3)c3c2CC(C)(C)CC3=O)n1` [Example 76, 1-(1-Butanoyl-1H-pyrazol-3-yl)-3-(cyclopentylsulfanyl)-6,6-dimethyl-6,7-dihydro-2-benzothiophen-4(5H)-one], the half-inhibitory concentration (IC50) is 980 nM.

In the case of `CC1(C)CC(=O)c2c(SC3CCCC3)sc(-c3ccn(C(=O)c4ccc(C#N)cc4)n3)c2C1` [Example 77, 4-({3-[3-(Cyclopentylsulfanyl)-6,6-dimethyl-4-oxo-4,5,6,7-tetrahydro-2-benzothiophen-1-yl]-1H-pyrazol-1-yl}carbonyl)benzonitrile], the IC50 was determined as 260 nM.

`CC(C)C(=O)n1ccc(-c2sc(SC3CCCC3)c3c2CC(C)(C)CC3=O)n1` [Example 78, 3-(Cyclopentylsulfanyl)-6,6-dimethyl-1-[1-(2-methylpropanoyl)-1H-pyrazol-3-yl]-6,7-dihydro-2-benzothiophen-4(5H)-one]: the IC50 is 1500 nM.

In the case of `CC1(C)CC(=O)c2c(SC3CCCC3)sc(-c3ccn(C(=O)Cc4ccc(Cl)cc4)n3)c2C1` [Example 79, 1-{1-[(4-Chlorophenyl)acetyl]-1H-pyrazol-3-yl}-3-(cyclopentylsulfanyl)-6,6-dimethyl-6,7-dihydro-2-benzothiophen-4(5H)-one], the concentration for half-maximal inhibition (IC50) was found to be 600 nM.

Source of the values: patent US20130338106A1, “COMPOUNDS INHIBITING LEUCINE-RICH REPEAT KINASE ENZYME ACTIVITY” (priority 2011, published 2013).
